Series [1] deals with Escherichia coli. The experiment in a line: Antibacterial activity against Escherichia coli assessed as inhibition zone at 50 ug/ml by diffusion method. In kind it is functional. As to conditions: read-out: IZ.
Series [2] concerns Pseudomonas aeruginosa. The experiment in a line: Antibacterial activity against Pseudomonas aeruginosa assessed as inhibition zone at 50 ug/ml by diffusion method. The class given is functional. The note with it: read-out: IZ.
A short description of series [3]: Selectivity index, ratio of CC50 for African green monkey Vero cells to MIC for Mycobacterium tuberculosis H37Rv. The class given is toxicity. The note with it: read-out: Selectivity Index.
Series [4] relates to Staphylococcus aureus. The experiment in a line: Antibacterial activity against Staphylococcus aureus assessed as inhibition zone at 75 ug/ml by diffusion method. As to conditions: read-out: IZ. In kind it is functional.
The nature of series [5]: Cytotoxicity against African green monkey Vero cells measured after 72 hrs by MTT assay. In kind it is toxicity, cell-based. As to conditions: chlorocebus sabaeus. A general note: Formazan colour is commonly taken as a measure of viable cells.
Series [6] in a line: Cytotoxicity against African green monkey Vero cells assessed as inhibition of cell growth at 6.25 ug/ml measured after 72 hrs by MTT assay relative to control. In kind it is toxicity, cell-based. The note with it: chlorocebus sabaeus, at 6.25 µg/mL.
The test system of series [7] is Staphylococcus aureus. The experiment in a line: Antibacterial activity against Staphylococcus aureus assessed as inhibition zone at 25 ug/ml by diffusion method. As to conditions: read-out: IZ. The class given is functional.
Series [8] concerns Pseudomonas aeruginosa. The experiment in a line: Antibacterial activity against Pseudomonas aeruginosa assessed as inhibition zone at 75 ug/ml by diffusion method. In kind it is functional. The note with it: read-out: IZ.
The subject of series [9] is Pseudomonas aeruginosa. The experiment in a line: Antibacterial activity against Pseudomonas aeruginosa assessed as inhibition zone at 25 ug/ml by diffusion method. The class given is functional. The note with it: read-out: IZ.
In series [10] the test system is Mycobacterium tuberculosis. The experiment in a line: Antimycobacterial activity against Mycobacterium tuberculosis H37Rv assessed as bacterial growth inhibition by microplate Alamar blue assay. The class given is functional. On the technique in general: Resazurin is reduced to fluorescent resorufin, in cell work by metabolically active cells.
In series [11] the test system is Escherichia coli. The experiment in a line: Antibacterial activity against Escherichia coli assessed as inhibition zone at 75 ug/ml by diffusion method. The note with it: read-out: IZ. The class given is functional.
The subject of series [12] is Escherichia coli. The experiment in a line: Antibacterial activity against Escherichia coli assessed as inhibition zone at 25 ug/ml by diffusion method. The class given is functional. The note with it: read-out: IZ.
Series [13] concerns Staphylococcus aureus. The experiment in a line: Antibacterial activity against Staphylococcus aureus assessed as inhibition zone at 50 ug/ml by diffusion method. As to conditions: read-out: IZ. The class given is functional.

Structures are written as SMILES. Converted amounts (≈) assume the structure as drawn.

Turning to `O=C(CCc1cn(Cc2cn(Cc3ccc(F)cc3)nn2)c2ccccc12)N1CCN(S(=O)(=O)c2ccccc2)CC1`, the zone of inhibition at 50 µg/mL with Escherichia coli [1] is 15 mm; with Pseudomonas aeruginosa [2], 13 mm; in the series on Staphylococcus aureus [13], 15 mm. For the same compound, the selectivity ratio in [3] worked out at 247. For the same compound, the figures for the zone of inhibition at 75 µg/mL in the series with Staphylococcus aureus [4], in the series on Pseudomonas aeruginosa [8] and in the series on Escherichia coli [11] were 20 mm, 15 mm and 20 mm, respectively. This compound came in with a 50% cytotoxic concentration (CC50) at 72 h in [5] of 1540 µg/mL (≈ 2630 µM). Moreover, in [6], the inhibition at 72 h, 6.25 ug/ml amounted to 11.1%. For the same compound, the zone of inhibition at 25 µg/mL amounted to 9 mm in the series with Staphylococcus aureus [7], 10 mm in the series with Pseudomonas aeruginosa [9] and 13 mm in the series with Escherichia coli [12]. Further, the minimal inhibitory concentration (MIC) in [10] is 10.6 µM.
In the case of `COc1ccc(C(=O)N2CCN(C(=O)CCc3cn(Cc4cn(Cc5ccc(F)cc5)nn4)c4ccccc34)CC2)cc1`, the figures for the zone of inhibition at 50 µg/mL with Escherichia coli [1], with Pseudomonas aeruginosa [2] and in the series on Staphylococcus aureus [13] were 23 mm, 13 mm and 18 mm, respectively. For the same compound, the selectivity ratio in [3] came to 916. In addition, the zone of inhibition at 75 µg/mL in the series with Staphylococcus aureus [4] was 20 mm; with Pseudomonas aeruginosa [8], 18 mm; in the series with Escherichia coli [11], 25 mm. The CC50 at 72 h in series [5] was 1470 µg/mL (≈ 2520 µM). The inhibition at 72 h, 6.25 ug/ml in series [6] was 8.8%. The results for the zone of inhibition at 25 µg/mL in the series on Staphylococcus aureus [7], in the series with Pseudomonas aeruginosa [9] and in the series on Escherichia coli [12] were 12 mm, 9 mm and 15 mm, respectively. Moreover, the MIC in series [10] came to 2.7 µM.

Broadly, the CC50 is the concentration that lowers cell viability or growth by half. One may read the inhibition as the share of the control response that was lost under treatment. Usually MIC stands for the least concentration at which growth counts as inhibited.

Source of the values: ChEMBL document CHEMBL5523679, “Discovery of 1,2,3-triazole incorporated indole-piperazines as potent antitubercular agents: Design, synthesis, in vitro biological evaluation, molecular docking and ADME studies” (Bioorg Med Chem, 2024).
